Residues, ends and D or L forms follow the SMILES beside them.
Test: Identification of absorbed peptides in plasma (PDA-HPLC, LC-MS/MS)
Format: in vivo
Settings: pigs fed Peptide Composition 1 (Example 1), blood collected during dissection; 3 peptide peaks present
Protocol: First, between 3 and 5 day-old 18 pigs were divided into 3 groups and they were bred for 3 days. Then the groups were designated as test groups (Example 1 and Comparative Example 1) and a control group (Comparative Example 2) and 1.25 g of dextran sulfate per kg of body weight was given as drinking water for 5 days (DSS treatment). Then, 250 mg of Peptide Composition 1 per kg of body weight was fed for 5 days in Example 1, 250 mg of Peptide Composition 2 per kg of body weight was fed for 5 days in Comparative Example 1, and alanine corresponding to the nitrogen content of the peptide was fed in Comparative Example 2. After that, the intestinal tract cells were collected during dissection and cytokines were measured. Comparative Example 2 corresponds to the control. (Dextran sulfate is a substance which induces bowel inflammation. International J. of Colorectal Disease, 15, 144-160 (2000))
Blood was collected during dissection and plasma was isolated, and then the structural analysis of a peak obtained by PDA-HPLC was carried out by LC-MS/MS to identify an amino acid sequence of the peptides.

## CC(C)C[C@H](NC(=O)[C@@H](N)Cc1ccccc1)C(=O)N[C@H](C(=O)O)C(C)C [FLV, Phe-Leu-Val] (H-Phe-Leu-Val-OH; N-terminus and C-terminus assumed)
  peptide peak present in plasma: largest peak

From patent US20120157395A1, “ANTI-INFLAMMATORY AGENT FOR ORAL APPLICATION, AND ANTI-INFLAMMATORY PEPTIDE FOR ORAL APPLICATION” (priority 2009, published 2012)
